Test results taken from patent US11872225B2, “Pyruvate kinase modulators and use thereof” (Agios Pharmaceuticals, Inc., priority 2017, dated 2024).

Target: wild type PKM2 (Homo sapiens, UniProt P14618)
Experiment: PKM2 Assay (LDH/NADH-coupled, absorbance at 340 nm)
Assay type: biochemical
Conditions: wild type PKM2 activation; 60 min preincubation at 25° C.; ADP 0.4 mM, PEP 0.11 mM; read-out: PKM2 WT AC50
Procedure: A compound described herein may be tested for its ability to activate PKM2. For simplicity, the activation activity of these compounds is represented as an AC50 in Table 2. In Tables 2, a compound described herein may have an AC50 of wild type PKM2.
PKM2 enzyme stock solution was diluted to prepare a 1.11× Reaction Mix (without ADP). 1 μL of test compound was first added to the wells followed by 40 μL of 1.11× Reaction Mix (without ADP) and incubated at room temperature (25° C.) for 60 min. The reaction was initiated with 10 μL ADP (0.4 mM final concentration), bringing the final Reaction Mix to 1×, and the reaction progress was measured as changes in absorbance at 340 nm wavelength at room temperature.
Test compound preparation: Test compounds were prepared at 50× final concentration in DMSO. 1 to 3 dilutions were made for 11 points (for example 50 μL of 5000 μM compound was added to 100 μL 100% DMSO to yield a 1667 μM, 50 μL of this added to 100 μL DMSO to yield 556 μM, and so forth). The compounds were added to the assay as a 1 to 50 dilution (1 μL in 50 μL) to yield a top concentration of 100 μM, decreasing 3-fold for 11 points.
Reaction Mix: PKM2 (5 ng/well, 0.1 μg/ml), ADP (0.4 mM), PEP (0.11 mM), NADH (180 μM), LDH (0.005 U/μL, Sigma #L3888), 1 mM DTT, 0.03% BSA in 1× Reaction Buffer
Reaction Buffer: 100 mM KCl, 50 mM Tris pH 7.5, 5 mM MgCl2.

wild type PKM2, sequence (P14618 whole entry): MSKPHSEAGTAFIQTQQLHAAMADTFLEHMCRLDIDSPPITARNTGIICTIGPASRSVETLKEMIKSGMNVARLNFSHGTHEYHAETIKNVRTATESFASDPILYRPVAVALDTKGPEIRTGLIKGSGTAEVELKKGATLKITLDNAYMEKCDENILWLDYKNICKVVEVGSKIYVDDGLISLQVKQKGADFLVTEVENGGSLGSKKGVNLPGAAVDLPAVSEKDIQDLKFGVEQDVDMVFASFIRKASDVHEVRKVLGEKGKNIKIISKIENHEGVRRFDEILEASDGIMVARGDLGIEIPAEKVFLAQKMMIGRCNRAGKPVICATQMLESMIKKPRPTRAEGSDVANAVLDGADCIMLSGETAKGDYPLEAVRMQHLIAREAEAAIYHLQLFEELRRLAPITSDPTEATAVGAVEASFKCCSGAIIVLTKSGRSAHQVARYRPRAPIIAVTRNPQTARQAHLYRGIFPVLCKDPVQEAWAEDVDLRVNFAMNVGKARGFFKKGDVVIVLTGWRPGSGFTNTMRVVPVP

| SMILES | AC50 [nM] |
| --- | --- |
| Cn1c2nc([S+](C)[O-])sc2c2cnn(Cc3cnc(N)s3)c(=O)c21 (stereo not shown) [Compound 38] | < 300 |
| Cc1nc2c(s1)c1cnn(CCOCCO)c(=O)c1n2C [Compound 20] | > 800 |
| C=Cc1nc2c(s1)c1cnn(Cc3cccc4[nH]ncc34)c(=O)c1n2C [Compound 39] | < 300 |
| Cc1nc2c(s1)c1cnn(Cc3ccc(N)cc3)c(=O)c1n2C [Compound 18] | > 800 |
| Cc1nc2c(s1)c1cnn(CCO)c(=O)c1n2C [Compound 25] | > 800 |
| Cc1nc2c(s1)c1cnn(Cc3cn[nH]c3)c(=O)c1n2C [Compound 26] | 301 to 800 |
| Cn1c2nc([S+](C)[O-])sc2c2cnn(Cc3ccnc(N)c3)c(=O)c21 (stereo not shown) [Compound 29] | 301 to 800 |
| CSc1nc2c(s1)c1cnn(Cc3ccnc(=O)[nH]3)c(=O)c1n2C [Compound 35] | > 800 |
| CC(=O)c1cccc(CC(c2cc[nH]n2)c2nc3c(s2)c2cnn(Cc4cccc(C(C)=O)c4)c(=O)c2n3C)c1 (stereo not shown) [Compound 71] | > 800 |
| Cn1c2nc(Cc3cc[nH]n3)sc2c2cnn(Cc3csc(C(N)=O)n3)c(=O)c21 [Compound 69] | < 300 |
| Cc1nc2c(s1)c1cnn(Cc3ccc(CO)cc3)c(=O)c1n2C [Compound 14] | > 800 |
| CC(=O)c1cccc(Cn2ncc3c4sc([S+](C)[O-])nc4n(C)c3c2=O)c1 (stereo not shown) [Compound 32] | < 300 |
| Cc1nc2c(s1)c1cnn(Cc3cccc(C(=O)O)c3)c(=O)c1n2C [Compound 5] | > 800 |
| Cc1nc2c(s1)c1cnn(Cc3ccc4nn[nH]c4c3)c(=O)c1n2C [Compound 6] | 301 to 800 |
| Cc1nc2c(s1)c1cnn(Cc3c[nH]cn3)c(=O)c1n2C [Compound 12] | > 800 |
| Cc1nc2c(s1)c1cnn(Cc3cccc4[nH]ncc34)c(=O)c1n2C [Compound 8] | < 300 |
| Cn1c2nc([S+](C)[O-])sc2c2cnn(Cc3cccc4c3CCNC4)c(=O)c21 (stereo not shown) [Compound 30] | < 300 |

More lines, now with the values ahead:

| AC50 [nM] | SMILES |
| --- | --- |
| > 800 | Cn1c2nc(Cn3cncn3)sc2c2cnn(Cc3ccnc(N)n3)c(=O)c21 [Compound 143] |
| < 300 | Cn1c2nc(Cc3csc(CO)n3)sc2c2cnn(Cc3nccs3)c(=O)c21 [Compound 93] |
| 301 to 800 | Cn1ccc(CCn2ncc3c4sc(Cc5cccnc5)nc4n(C)c3c2=O)n1 [Compound 137] |
| < 300 | Cn1c2nc(Cc3cc[nH]n3)sc2c2cnn(Cc3csc(N)n3)c(=O)c21 [Compound 75] |
| 301 to 800 | Cn1c2nc(Cc3cc[nH]n3)sc2c2cnn(Cc3n[nH]c(=O)[nH]3)c(=O)c21 [Compound 131] |
| < 300 | Cn1c2nc(Cc3cc[nH]n3)sc2c2cnn(Cc3coc(C(N)=O)n3)c(=O)c21 [Compound 132] |
| > 800 | Cn1c2nc(Cc3cnc(O)nc3)sc2c2cnn(Cc3cccc4[nH]ncc34)c(=O)c21 [Compound 81] |
| > 800 | CCn1c2nc(Cc3cc[nH]n3)sc2c2cnn(Cc3ccccc3)c(=O)c21 [Compound 138] |
| < 300 | Cn1c2nc(Cc3ccccn3)sc2c2cnn(Cc3cc[nH]n3)c(=O)c21 [Compound 92] |
| < 300 | Cn1c2nc(C(=O)c3cc[nH]n3)sc2c2cnn(Cc3cccc(N)n3)c(=O)c21 [Compound 123] |
| 301 to 800 | Cn1c2nc(Cc3cc[nH]n3)sc2c2cnn(Cc3ccc(C#N)cn3)c(=O)c21 [Compound 118] |
| > 800 | Cn1cc(C(=O)O)c(Cn2ncc3c4sc(Cc5cc[nH]n5)nc4n(C)c3c2=O)n1 [Compound 117] |
| > 800 | Cn1c2nc(Cn3cncn3)sc2c2cnn(Cc3n[nH]c(=O)[nH]3)c(=O)c21 [Compound 145] |
| < 300 | Cn1ccc(Cc2nc3c(s2)c2cnn(Cc4ccn[nH]4)c(=O)c2n3C)n1 [Compound 110] |
| < 300 | Cn1ccc(Cn2ncc3c4sc(C(=O)c5cc[nH]n5)nc4n(C)c3c2=O)n1 [Compound 122] |
| < 300 | Cn1c2nc(Cn3ccnc3)sc2c2cnn(Cc3cccc4[nH]ncc34)c(=O)c21 [Compound 99] |
| < 300 | Cn1nncc1Cn1ncc2c3sc(Cc4cc[nH]n4)nc3n(C)c2c1=O [Compound 108] |
| < 300 | Cn1c2nc(Cc3c[nH]nn3)sc2c2cnn(Cc3cc[nH]n3)c(=O)c21 [Compound 100] |
| < 300 | Cn1c2nc(Cc3cc[nH]n3)sc2c2cnn(Cc3ncns3)c(=O)c21 [Compound 94] |
| 301 to 800 | Cn1c2nc(Cc3cc[nH]n3)sc2c2cnn(CCc3cccnc3)c(=O)c21 [Compound 136] |
| > 800 | Cn1c2nc(Cn3cnnc3)sc2c2cnn(Cc3cc[nH]n3)c(=O)c21 [Compound 106] |

Target: PKM2 (Mus musculus, UniProt P52480)
Experiment: not given
Conditions: in vivo, LPS; cited from earlier work

PKM2, sequence (P52480 whole entry): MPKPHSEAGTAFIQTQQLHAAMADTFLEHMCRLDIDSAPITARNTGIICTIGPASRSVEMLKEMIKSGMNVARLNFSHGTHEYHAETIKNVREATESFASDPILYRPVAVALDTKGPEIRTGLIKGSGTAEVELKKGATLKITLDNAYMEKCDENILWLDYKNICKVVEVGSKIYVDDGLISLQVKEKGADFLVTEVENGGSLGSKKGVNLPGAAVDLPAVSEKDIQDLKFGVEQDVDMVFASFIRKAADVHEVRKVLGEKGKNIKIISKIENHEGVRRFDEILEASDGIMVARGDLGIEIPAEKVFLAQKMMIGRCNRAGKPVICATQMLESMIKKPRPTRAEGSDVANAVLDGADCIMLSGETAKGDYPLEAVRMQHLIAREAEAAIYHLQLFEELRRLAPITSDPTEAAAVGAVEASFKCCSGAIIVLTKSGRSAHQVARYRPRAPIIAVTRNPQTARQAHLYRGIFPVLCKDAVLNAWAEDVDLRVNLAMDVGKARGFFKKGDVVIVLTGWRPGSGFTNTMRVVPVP

| SMILES | IL-1β production | production of IL-10 |
| --- | --- | --- |
| Cn1c2cc([S+](C)[O-])sc2c2cnn(Cc3cccc(N)c3)c(=O)c21 (stereo not shown) [TEPP-46] | inhibited LPS and IL-1β production | boosting production of IL-10 |
